The source of these data is patent US5985837A, “Dolastatin 15 derivatives” (BASF Aktiengesellschaft, priority 1998, dated 1999).

In series [1] the test system is tumor cells such as the HT-29 colon carcinoma or LX-1 lung tumor. The series can be described thus: Cytotoxicity, microculture tetrazolium assay (MTT). The following applies: 48 hours incubation, concentration giving T/C of 50% growth inhibition, cell line not given. Type of series: cell-based. As for the experimental part:
Cytotoxicity was measured using a standard methodology for adherent cell lines, such as the microculture tetrazolium assay (MTT). Details of this assay have been published (Alley, M. C. et al., Cancer Research 48:589-601, 1988). Exponentially growing cultures of tumor cells such as the HT-29 colon carcinoma or LX-1 lung tumor were used to make microtiter plate cultures. Cells were seeded at 5000-20,000 cells per well in 96-well plates (in […] of media), and grown overnight at 37° C. Test compounds were added, in 10-fold dilutions varying from 10^-4 M to 10^-10 M. Cells were then incubated for 48 hours. To determine the number of viable cells in each well, the MTT dye was added ([…] of a 3 mg/mL solution of 3-(4,5-dimethylthiazol-2-yl)-2,5-diphenyltetrazolium bromide in saline). This mixture was incubated at 37° C. for 5 hours, and then […] of 25% SDS, pH 2, was added to each well. After an overnight incubation, the absorbance of each well at 550 nm was read using an ELISA reader. The values for the mean ±SD of data from replicated wells were calculated, using the formula % T/C (% viable cells treated/control). The concentration of test compound which gives a T/C of 50% growth inhibition was designated as the IC50.

The subject of series [2] is National Cancer Institute's P388 lymphocytic leukemia (PS system) cell line. The following applies: background statement; cited from earlier work.
The conditions of series [3]: background statement on Dolastatin 15; cited from earlier work.

For orientation: IC50 means the concentration that gives 50% inhibition. In turn, `CNC(=O)c1cccc(NC(=O)[C@@H]2CCCN2C(=O)[C@H](C(C)C)N(C)C(=O)[C@@H](NC(=O)[C@H](C(C)C)N(C)C)C(C)C)c1` [II-1, 3-(Me2 Val-Val-MeVal-Pro-NH)--C6 H4 --CO--NHCH3] registered an IC50 in series [1] of over 1000 nM.

As to `CC(C)[C@H](NC(=O)[C@H](C(C)C)N(C)C)C(=O)N(C)[C@H](C(=O)N1CCC[C@H]1C(=O)Nc1ccccc1C(=O)NCCC(O)c1ccccc1)C(C)C` (stereo partly drawn) [Compound I-87, 2-(Me2 Val-Val-MeVal-Pro-NH)--C6 H4 C(O)NH((CH2)2 CH(C6 H5)OH)], the IC50 in series [1] is 200 nM.

`CC(C)[C@H](NC(=O)[C@H](C(C)C)N(C)C)C(=O)N(C)[C@H](C(=O)N1CCC[C@H]1C(=O)Nc1ccccc1C(=O)NCCCO)C(C)C` [Compound I-86, 2-(Me2 Val-Val-MeVal-Pro-NH)--C6 H4 --CO--NH(--(CH2)3 --OH)] returned an IC50 in series [1] of 600 nM.

`CC(C)[C@H](NC(=O)[C@H](C(C)C)N(C)C)C(=O)N(C)[C@H](C(=O)N1CCC[C@H]1C(=O)Nc1ccccc1C(=O)N1CCC(c2ccccc2)O1)C(C)C` (stereo partly drawn) [Compound I-64, 2-(Me2 Val-Val-MeVal-Pro-NH)--C6 H4 --CO--N(--(CH2)2 --CH(C6 H5)O--)] displayed an IC50 in series [1] of 250 nM.

For `CC(C)[C@H](NC(=O)[C@H](C(C)C)N(C)C)C(=O)N(C)[C@H](C(=O)N1CCC[C@H]1C(=O)Nc1ccccc1C(=O)Nc1nccs1)C(C)C` [Compound I-5, 2-(Me2 Val-Val-MeVal-Pro-NH)--C6 H4 C(O)NH(thiazol-2-yl)], the midpoint of inhibition in series [1], the IC50, lay at 150 nM.

`CC(C)[C@H](NC(=O)[C@H](C(C)C)N(C)C)C(=O)N(C)[C@H](C(=O)N1CCC[C@H]1C(=O)Nc1ccccc1C(=O)NCc1ccccc1)C(C)C` [Compound I-2, 2-(Me2 Val-Val-MeVal-Pro-NH)--C6 H4 C(O)NHCH2 C6 H5]: the IC50 in series [1] was over 1000 nM.

For `CON(C)C(=O)c1ccccc1NC(=O)[C@@H]1CCCN1C(=O)[C@H](C(C)C)N(C)C(=O)[C@@H](NC(=O)[C@H](C(C)C)N(C)C)C(C)C` [Compound I-60, (2)-(Me2 Val-Val-MeVal-Pro-NH)-C6 H4 -CON(CH3) (OCH3)], the midpoint of inhibition in series [1], the IC50, lay at 400 nM.

With `CNC(=O)c1ccccc1NC(=O)[C@@H]1CCCN1C(=O)[C@H](C(C)C)N(C)C(=O)[C@@H](NC(=O)[C@H](C(C)C)N(C)C)C(C)C` [Compound I-1, 2-(Me2 Val-Val-MeVal-Pro-NH)--C6 H4 C(O)NHCH3], the IC50 in series [1] is 400 nM.

In the case of `CNC(=O)c1cc(OC)c(OC)cc1NC(=O)[C@@H]1CCCN1C(=O)[C@H](C(C)C)N(C)C(=O)[C@@H](NC(=O)[C@H](C(C)C)N(C)C)C(C)C` [Compound I-6, 2-(Me2 Val-Val-MeVal-ProNH)-4,5-bis(methoxy)C6 H2 C(O)NHCH3], the IC50 in series [1] was determined as 200 nM.

For `CC(C)[C@H](NC(=O)[C@H](C(C)C)N(C)C)C(=O)N(C)[C@H](C(=O)N1CCC[C@H]1C(=O)Nc1ccccc1C(=O)Nc1ccccc1)C(C)C` [Compound I-4, 2-(Me2 Val-Val-MeVal-Pro-NH)--C6 H4 C(O)NHC6 H5], inhibition in series [1] was half-maximal at 400 nM (IC50).

For the compound “2-(Me2 Val-Val-MeVal-Pro-NH)--C6 H4 --CO--CH3 [IV-1]”, the IC50 in series [1] was over 1000 nM.

With Dolastatin 15, the “inhibition of cell growth” value in series [2] is reported as “markedly inhibits the growth”. In addition, the “solubility in aqueous systems” value in series [3] is given as “poor solubility in aqueous systems”.

In series [1], `CC(C)NC(=O)c1ccccc1NC(=O)[C@@H]1CCCN1C(=O)[C@H](C(C)C)N(C)C(=O)[C@@H](NC(=O)[C@H](C(C)C)N(C)C)C(C)C` [Compound I-3, 2-(Me2 Val-Val-MeVal-Pro-NH)--C6 H4 C(O)NHCH(CH3)2] gave an IC50 of 500 nM.

`CC(C)[C@H](NC(=O)[C@H](C(C)C)N(C)C)C(=O)N(C)[C@H](C(=O)N1CCC[C@H]1C(=O)Nc1ccccc1C(=O)c1ccccc1)C(C)C` [IV-15, 2-(Me2 Val-Val-MeVal-Pro-NH)--C6 H4 --CO--C6 H5]: the IC50 in series [1] came out at 70 nM.

`CC(C)[C@H](NC(=O)[C@H](C(C)C)N(C)C)C(=O)N(C)[C@H](C(=O)N1CCC[C@H]1C(=O)Nc1cccc(C(=O)NCc2ccccc2)c1)C(C)C` [II-2, 3-(Me2 Val-Val-MeVal-Pro-NH)--C6 H4 --CO--NH CH2 C6 H5]: the IC50 in series [1] was over 1000 nM.
